# Experimental data reported in ChEMBL document CHEMBL3885881, “DrugMatrix”.
# Species on record: Rattus norvegicus
# Test: DrugMatrix - Regimen: Daily Repeat
# Type: toxicity, organism-based, Sprague-Dawley
# Set-up: regimen Daily Repeat, gender Male, age 6-8 weeks
# Conditions: in vivo, po, route oral GAVAGE, […]; for ABSOLUTE BASOPHIL / ABSOLUTE EOSINOPHIL / ABSOLUTE LYMPHOCYTE / ABSOLUTE MONOCYTE / ABSOLUTE SEGMENTED NEUTROPHIL / BASOPHIL / EOSINOPHIL / ERYTHROCYTE COUNT / HEMATOCRIT / HEMOGLOBIN / LEUKOCYTE COUNT / LYMPHOCYTE / MEAN CORPUSCULAR HEMOGLOBIN / MEAN CORPUSCULAR HEMOGLOBIN CONCENTRATION / MEAN CORPUSCULAR VOLUME / MONOCYTE / NEUTROPHIL / NUCLEATED RED BLOOD CELLS / PLATELET COUNT: tissue Blood; for ALANINE AMINOTRANSFERASE / ALBUMIN / ALKALINE PHOSPHATASE / ASPARTATE AMINOTRANSFERASE / BLOOD UREA NITROGEN / CARBON DIOXIDE / CHLORIDE / CHOLESTEROL / CREATINE PHOSPHOKINASE / CREATININE / GLUCOSE / LACTATE DEHYDROGENASE / LIPASE / PHOSPHORUS / POTASSIUM / SODIUM / TOTAL BILIRUBIN / TOTAL PROTEIN / URIC ACID: tissue Plasma
# [1] = 0 mg/kg, 72 h, dose level Control, time 3 day
# [2] = 0 mg/kg, 120 h, dose level Control, time 5 day
# [3] = 1 mg/kg, 72 h, dose level Low, time 3 day
structure (smiles),measurement,setting,value
CCOC(=O)C1=C(C)NC(C)=C(C(=O)OCC)C1c1ccccc1/C=C/C(=O)OC(C)(C)C [LACIDIPINE],ABSOLUTE BASOPHIL,[1],0 CELLS/uL
same,ABSOLUTE EOSINOPHIL,[1],13.67 CELLS/uL
same,ABSOLUTE LYMPHOCYTE,[1],10069.5 CELLS/uL
same,ABSOLUTE MONOCYTE,[1],50 CELLS/uL
same,ABSOLUTE SEGMENTED NEUTROPHIL,[1],516.83 CELLS/uL
same,BASOPHIL,[1],0%
same,EOSINOPHIL,[1],0.17%
same,ERYTHROCYTE COUNT,[1],5.44 x10E6/uL
same,HEMATOCRIT,[1],33.88%
same,HEMOGLOBIN,[1],13.23 G/DL
same,LEUKOCYTE COUNT,[1],10.65 x10E3/uL
same,LYMPHOCYTE,[1],94.67%
same,MEAN CORPUSCULAR HEMOGLOBIN,[1],24.37 pg
same,MEAN CORPUSCULAR HEMOGLOBIN CONCENTRATION,[1],39.05 G/DL
same,MEAN CORPUSCULAR VOLUME,[1],62.38 fL
same,MONOCYTE,[1],0.67%
same,NEUTROPHIL,[1],4.5%
same,NUCLEATED RED BLOOD CELLS,[1],0.33 /100WBC
same,PLATELET COUNT,[1],414.5 x10E3/uL
same,ALANINE AMINOTRANSFERASE,[1],72 u/L
same,ALBUMIN,[1],3.75 G/DL
same,ALKALINE PHOSPHATASE,[1],375 u/L
same,ASPARTATE AMINOTRANSFERASE,[1],87.5 u/L
same,BLOOD UREA NITROGEN,[1],14 mg/dL
same,CARBON DIOXIDE,[1],27.5 mmol/L
same,CHLORIDE,[1],95.83 MEQ/L
same,CHOLESTEROL,[1],68.5 mg/dL
same,CREATINE PHOSPHOKINASE,[1],284.33 u/L
same,CREATININE,[1],0.16 mg/dL
same,GLUCOSE,[1],156.67 mg/dL
same,LACTATE DEHYDROGENASE,[1],101.83 u/L
same,LIPASE,[1],9.67 u/L
same,PHOSPHORUS,[1],10.33 mg/dL
same,POTASSIUM,[1],5.22 MEQ/L
same,SODIUM,[1],137.67 MEQ/L
same,TOTAL BILIRUBIN,[1],0.13 mg/dL
same,TOTAL PROTEIN,[1],5.43 G/DL
same,URIC ACID,[1],0.8 mg/dL
same,ABSOLUTE BASOPHIL,[2],0 CELLS/uL
same,ABSOLUTE EOSINOPHIL,[2],20.67 CELLS/uL
same,ABSOLUTE LYMPHOCYTE,[2],11518.33 CELLS/uL
same,ABSOLUTE MONOCYTE,[2],47 CELLS/uL
same,ABSOLUTE SEGMENTED NEUTROPHIL,[2],614 CELLS/uL
same,BASOPHIL,[2],0%
same,EOSINOPHIL,[2],0.17%
same,ERYTHROCYTE COUNT,[2],5.61 x10E6/uL
same,HEMATOCRIT,[2],34.25%
same,HEMOGLOBIN,[2],13.38 G/DL
same,LEUKOCYTE COUNT,[2],12.2 x10E3/uL
same,LYMPHOCYTE,[2],94.33%
same,MEAN CORPUSCULAR HEMOGLOBIN,[2],23.83 pg
same,MEAN CORPUSCULAR HEMOGLOBIN CONCENTRATION,[2],39.08 G/DL
same,MEAN CORPUSCULAR VOLUME,[2],61.03 fL
same,MONOCYTE,[2],0.33%
same,NEUTROPHIL,[2],5.17%
same,NUCLEATED RED BLOOD CELLS,[2],0 /100WBC
same,PLATELET COUNT,[2],941.83 x10E3/uL
same,ALANINE AMINOTRANSFERASE,[2],68.83 u/L
same,ALBUMIN,[2],4.12 G/DL
same,ALKALINE PHOSPHATASE,[2],492.67 u/L
same,ASPARTATE AMINOTRANSFERASE,[2],83.33 u/L
same,BLOOD UREA NITROGEN,[2],14 mg/dL
same,CARBON DIOXIDE,[2],37 mmol/L
same,CHLORIDE,[2],98.67 MEQ/L
same,CHOLESTEROL,[2],56.5 mg/dL
same,CREATINE PHOSPHOKINASE,[2],167.33 u/L
same,CREATININE,[2],0.17 mg/dL
same,GLUCOSE,[2],157.5 mg/dL
same,LACTATE DEHYDROGENASE,[2],104.83 u/L
same,LIPASE,[2],10 u/L
same,PHOSPHORUS,[2],10.43 mg/dL
same,POTASSIUM,[2],5.46 MEQ/L
same,SODIUM,[2],143.87 MEQ/L
same,TOTAL BILIRUBIN,[2],0.17 mg/dL
same,TOTAL PROTEIN,[2],5.72 G/DL
same,URIC ACID,[2],0.85 mg/dL
same,ABSOLUTE BASOPHIL,[3],0 CELLS/uL
same,ABSOLUTE EOSINOPHIL,[3],98 CELLS/uL
same,ABSOLUTE LYMPHOCYTE,[3],10170.33 CELLS/uL
same,ABSOLUTE MONOCYTE,[3],49.33 CELLS/uL
same,ABSOLUTE SEGMENTED NEUTROPHIL,[3],815.67 CELLS/uL
same,BASOPHIL,[3],0%
same,EOSINOPHIL,[3],0.67%
same,ERYTHROCYTE COUNT,[3],5.08 x10E6/uL
same,HEMATOCRIT,[3],32.6%
same,HEMOGLOBIN,[3],13 G/DL
same,LEUKOCYTE COUNT,[3],11.13 x10E3/uL
same,LYMPHOCYTE,[3],91%
same,MEAN CORPUSCULAR HEMOGLOBIN,[3],25.63 pg
same,MEAN CORPUSCULAR HEMOGLOBIN CONCENTRATION,[3],39.9 G/DL
same,MEAN CORPUSCULAR VOLUME,[3],64.17 fL
same,MONOCYTE,[3],0.67%
same,NEUTROPHIL,[3],7.67%
same,NUCLEATED RED BLOOD CELLS,[3],0 /100WBC
same,PLATELET COUNT,[3],968 x10E3/uL
same,ALANINE AMINOTRANSFERASE,[3],76 u/L
same,ALBUMIN,[3],3.93 G/DL
same,ALKALINE PHOSPHATASE,[3],408.67 u/L
same,ASPARTATE AMINOTRANSFERASE,[3],89 u/L
same,BLOOD UREA NITROGEN,[3],12.33 mg/dL
same,CARBON DIOXIDE,[3],25 mmol/L
same,CHLORIDE,[3],96.67 MEQ/L
same,CHOLESTEROL,[3],78 mg/dL
same,CREATINE PHOSPHOKINASE,[3],356.67 u/L
same,CREATININE,[3],0.21 mg/dL
same,GLUCOSE,[3],154.33 mg/dL
same,LACTATE DEHYDROGENASE,[3],122.67 u/L
same,LIPASE,[3],12 u/L
same,PHOSPHORUS,[3],9.57 mg/dL
same,POTASSIUM,[3],5.36 MEQ/L
same,SODIUM,[3],139.33 MEQ/L
same,TOTAL BILIRUBIN,[3],0.13 mg/dL
same,TOTAL PROTEIN,[3],5.4 G/DL
same,URIC ACID,[3],0.5 mg/dL
